Results from patent US8143259B2, “Cold menthol receptor antagonists” (Janssen Pharmaceutica, NV, priority 2008, dated 2012).
Where “and” joins values, the source holds several entries; their conditions need not be identical. Equal entries are not always repeated.

Target: T1, canine TRPM8 (Canis lupus familiaris, UniProt Q1A7N1)
T1 construct: expressed in transfected cells
Test: In Vitro Canine TRPM8 Functional Assay (Ca2+ fluorescence, icilin activation)
Type: cell-based
Details: for % Inh @ 1 μM: 1 μM compound; for IC50: HEK293 cells stably expressing canine TRPM8, icilin activation, Ca2+ fluorescence; for % Inh @ 0.5 μM: 0.5 μM compound; for inhibition at 1 µM: HEK293, 1 μM compound; for inhibition at 0.5 µM: HEK293, 0.5 μM compound
How it was run: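 Antagonism read as inhibition of the intracellular Ca2+ rise evoked by icilin (~EC80), measured by FLIPR or FDSS. Stable canine TRPM8 HEK293 line, Calcium 3 dye; 5 min compound preincubation. Normalised, basal-corrected peak fluorescence from quadruplicates fitted to sigmoidal curves.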

[1] = canine TRPM8 HEK293, icilin, 0.5 µM

T1 sequence (Q1A7N1 1-1104): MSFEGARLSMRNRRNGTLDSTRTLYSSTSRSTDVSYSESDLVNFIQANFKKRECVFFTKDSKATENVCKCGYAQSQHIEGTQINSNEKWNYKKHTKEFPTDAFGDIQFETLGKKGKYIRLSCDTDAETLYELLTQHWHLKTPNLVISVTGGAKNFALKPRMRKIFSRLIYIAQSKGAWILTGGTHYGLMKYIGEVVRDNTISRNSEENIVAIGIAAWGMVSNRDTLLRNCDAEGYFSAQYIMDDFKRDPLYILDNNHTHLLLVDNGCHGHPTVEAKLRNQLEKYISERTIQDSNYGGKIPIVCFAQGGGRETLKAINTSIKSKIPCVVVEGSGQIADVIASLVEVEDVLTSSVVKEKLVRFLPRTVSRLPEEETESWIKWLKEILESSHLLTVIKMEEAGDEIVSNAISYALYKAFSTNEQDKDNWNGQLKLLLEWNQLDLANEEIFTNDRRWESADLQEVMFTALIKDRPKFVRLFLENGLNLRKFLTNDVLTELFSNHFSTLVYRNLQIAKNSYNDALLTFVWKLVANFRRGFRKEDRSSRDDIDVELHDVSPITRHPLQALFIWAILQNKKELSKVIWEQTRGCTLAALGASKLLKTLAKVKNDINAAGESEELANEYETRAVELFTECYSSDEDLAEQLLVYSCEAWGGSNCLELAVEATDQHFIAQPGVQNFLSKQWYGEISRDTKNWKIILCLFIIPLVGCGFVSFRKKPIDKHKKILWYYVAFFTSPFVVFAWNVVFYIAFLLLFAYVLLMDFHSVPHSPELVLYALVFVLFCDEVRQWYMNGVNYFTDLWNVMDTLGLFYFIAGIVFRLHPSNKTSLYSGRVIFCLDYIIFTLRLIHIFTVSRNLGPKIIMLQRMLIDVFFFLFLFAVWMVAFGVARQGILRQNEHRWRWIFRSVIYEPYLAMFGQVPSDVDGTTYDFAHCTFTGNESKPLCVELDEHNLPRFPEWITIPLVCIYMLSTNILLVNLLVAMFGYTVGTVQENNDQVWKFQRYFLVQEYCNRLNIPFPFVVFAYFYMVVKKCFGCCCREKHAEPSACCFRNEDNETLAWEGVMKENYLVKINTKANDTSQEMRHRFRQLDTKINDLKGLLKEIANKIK

| Structure (SMILES) | IC50 | inhibition at 0.5 µM (canine TRPM8 HEK293, icilin) [%] | further results |
| --- | --- | --- | --- |
| O=C(C(Nc1ccccc1F)c1ccc(N2CCOCC2)nc1)N1CCCC1c1ccccc1F (single isomer, unassigned) [Cpd 360] |  |  | % Inh @ 0.2 μM (0.2 μM compound, canine TRPM8 HEK293, icilin, 0.2 µM): 43% |
| CC(C)(C)c1ccc(C(Nc2ccccc2)C(=O)N2CCCC2c2ccc(Cl)cc2)cc1 (single isomer, unassigned) [Cpd 367] | 0.149 ± 0.051 µM |  | % Inh @ 1 μM (canine TRPM8 HEK293, icilin, 1 µM): 5.8157% |
| CC(C)(C)c1ccc(C(Nc2ccccc2)C(=O)N2CCCC2CNc2ccccc2)cc1 (single isomer, unassigned) [Cpd 368] |  |  | % Inh @ 1 μM (canine TRPM8 HEK293, icilin): 15.864% |
| O=C(C(Nc1ccccc1)c1ccc(C(F)(F)F)cc1)N1CCCC1c1ccccc1Cl (single isomer, unassigned) [Cpd 369] |  |  | % Inh @ 0.5 μM (canine TRPM8 HEK293, icilin): 7.773%; % Inh @ 3 μM (3 μM compound, canine TRPM8 HEK293, icilin): 48% |
| CC(C)(C)c1ccc(C(Nc2ccccc2)C(=O)N2CCC(O)(c3ccccc3)CC2)cc1 (centres unmarked) [Cpd 3] | 0.351 µM |  | inhibition at 1 µM (canine TRPM8 HEK293, icilin): 101% |
| CC(C)(C)c1ccc(C(Nc2ccccc2)C(=O)N2CCC(O)(c3ccccn3)CC2)cc1 (centres unmarked) [Cpd 4] | 0.291 µM |  | inhibition at 1 µM (canine TRPM8 HEK293, icilin): 102% |
| CC(C)(C)c1ccc(C(Nc2ccccc2)C(=O)N2CCCC2c2cccnc2)cc1 (centres unmarked) [Cpd 5] | 0.0995 µM |  | inhibition at 1 µM (canine TRPM8 HEK293, icilin): 102% |
| CC(C)(C)c1ccc(C(Nc2ccccc2)C(=O)N2CCCCC2c2ccccc2)cc1 (centres unmarked) [Cpd 11] | 0.172 µM |  | inhibition at 1 µM (canine TRPM8 HEK293, icilin): 103% |
| CC(C)(C)c1ccc(C(Nc2ccccc2)C(=O)N2CCCC2c2ccccc2)cc1 (centres unmarked) [Cpd 12] | 0.0606 µM |  | inhibition at 1 µM (canine TRPM8 HEK293, icilin): 103% |
| CC(C)(C)c1ccc(C(Nc2ccccc2)C(=O)N2CCC(c3ccccc3)C2)cc1 (centres unmarked) [Cpd 13] | 0.323 µM |  | inhibition at 1 µM (canine TRPM8 HEK293, icilin): 103% |
| CC(C)(C)c1ccc(C(Nc2ccccc2)C(=O)N2CCCCC2Cc2ccccc2)cc1 (centres unmarked) [Cpd 14] | 0.416 µM |  | inhibition at 1 µM (canine TRPM8 HEK293, icilin): 102% |
| CC(C)(C)c1ccc(C(Nc2ccccc2)C(=O)N2CCc3ccccc32)cc1 (centres unmarked) [Cpd 15] | 0.257 µM |  | inhibition at 1 µM (canine TRPM8 HEK293, icilin): 94.8% |
| O=C(C(Nc1ccccc1)c1ccc(C(F)(F)F)cc1)N1CCCC1c1ccccc1 (centres unmarked) [Cpd 17] | 0.0603 µM |  | inhibition at 1 µM (canine TRPM8 HEK293, icilin): 98.2% |
| CC(C)(C)c1ccc(C(Nc2ccccc2)C(=O)N2CCCCCC2c2ccccc2)cc1 (centres unmarked) [Cpd 18] | 0.349 µM |  | inhibition at 1 µM (canine TRPM8 HEK293, icilin): 95.4% |
| O=C(C(Nc1ccccc1)c1ccc(C(F)(F)F)cc1)N1CCCC1c1cccnc1 (centres unmarked) [Cpd 19] | 0.282 µM |  | inhibition at 1 µM (canine TRPM8 HEK293, icilin): 100% |
| O=C(C(Nc1ccccc1)c1ccc(C(F)(F)F)cc1)N1CCCC1c1ccccc1F (centres unmarked) [Cpd 20] | 0.0299 µM |  | inhibition at 1 µM (canine TRPM8 HEK293, icilin): 101% |
| O=C(C(Nc1ccccc1)c1ccc(C(F)(F)F)cc1)N1CCCC1c1cccs1 (centres unmarked) [Cpd 24] | 0.0149 µM | 102 |  |
| O=C(C(Nc1ccccc1)c1ccc(C(F)(F)F)cc1)N1CCCC1c1cc2ccccc2[nH]1 (centres unmarked) [Cpd 25] | 0.141 µM | 102 |  |
| O=C(C(Nc1ccccc1)c1ccc(C(F)(F)F)cc1)N1CCCC1c1cc2ccccc2[nH]1 (centres unmarked) [Cpd 26] |  |  | % Inh @ 0.5 μM [1]: 56.872% |
| Cc1cccc2c1N(C(=O)C(Nc1ccccc1)c1ccc(C(F)(F)F)cc1)CC2 (centres unmarked) [Cpd 27] | 0.316 µM | 93.2 |  |
| O=C(C(Nc1ccccc1)c1ccc(C(F)(F)F)cc1)N1CCCC1c1ccncc1 (centres unmarked) [Cpd 28] | 0.0917 µM | 103 |  |

| Structure (SMILES) | IC50 | inhibition at 0.5 µM (canine TRPM8 HEK293, icilin) [%] | further results |
| --- | --- | --- | --- |
| O=C(C(Nc1ccccc1)c1ccc(C(F)(F)F)cc1)N1CCCC1c1ccccc1Br (centres unmarked) [Cpd 29] | 0.0409 µM | 104 |  |
| Cc1ccccc1C1CCCN1C(=O)C(Nc1ccccc1)c1ccc(C(F)(F)F)cc1 (centres unmarked) [Cpd 32] | 0.0312 µM | 104 |  |
| O=C(C(Nc1ccccc1)c1ccc(C(F)(F)F)cc1)N1CCc2ccccc21 (centres unmarked) [Cpd 33] | 0.202 µM | 96.5 |  |
| Cc1ccccc1NC(C(=O)N1CCc2ccccc21)c1ccc(C(F)(F)F)cc1 (centres unmarked) [Cpd 34, 1-(Indolin-1-yl)-2-(o-tolylamino)-2-(4-(trifluoromethyl)phenyl)-ethanone] | 0.161 µM | 102 |  |
| O=C(C(Nc1ccccc1F)c1ccc(C(F)(F)F)cc1)N1CCc2ccccc21 (centres unmarked) [Cpd 36] | 0.459 µM | 90.7 |  |
| O=C(C(c1ccc(C(F)(F)F)cc1)N1CCc2ccccc21)N1CCc2ccccc21 (centres unmarked) [Cpd 42] | 0.231 µM | 102 | inhibition at 1 µM (canine TRPM8 HEK293, icilin): 29% |
| COc1ccccc1C1CCCN1C(=O)C(Nc1ccccc1)c1ccc(C(F)(F)F)cc1 (centres unmarked) [Cpd 43] | 0.0333 µM | 101 |  |
| O=C(C(Nc1ccccc1)c1ccc(C(F)(F)F)cc1)N1CCCCC1c1ccccc1 (centres unmarked) [Cpd 44] | 0.0576 µM | 101 |  |
| O=C(C(Nc1ccccc1)c1ccc(C(F)(F)F)cc1)N1CCCC1c1nccs1 (centres unmarked) [Cpd 49] | 0.0783 µM | 102 |  |
| O=C(C(Nc1ccccc1)c1ccc(C(F)(F)F)cc1)N1CCCC1c1ccccn1 (centres unmarked) [Cpd 50] | 0.376 µM | 83.6 |  |
| O=C(C(Nc1ccccc1)c1ccc(C(F)(F)F)cc1)N1CCCC1c1ccco1 (centres unmarked) [Cpd 52] | 0.0198 µM | 97.8 |  |
| CC(C)(C)c1ccc(C(Nc2ccccc2)C(=O)N2CCCC2c2ccncc2)cc1 (centres unmarked) [Cpd 53] | 0.0538 µM | 99 |  |
| CC(C)(C)c1ccc(C(Nc2ccccc2)C(=O)N2CCCC2c2ccccn2)cc1 (centres unmarked) [Cpd 54] |  |  | % Inh @ 0.5 μM [1]: 69.055% |
| CC(C)(C)c1ccc(C(Nc2ccccc2)C(=O)N2CCCC2c2ccccn2)cc1 (centres unmarked) [Cpd 55] | 0.207 µM | 99.9 |  |
| N#Cc1ccc(C(Nc2ccccc2F)C(=O)N2CCCC2c2ccccc2Cl)cc1 (centres unmarked) [Cpd 62] | 0.078 µM | 103 |  |
| O=C(NN1CCCC1c1ccccc1Cl)C(Nc1ccccc1)c1ccc(C(F)(F)F)cc1 (centres unmarked) [Cpd 63, N-[2-(2-Chloro-phenyl)-pyrrolidin-1-yl]-2-phenylamino-2-(4-trifluoromethyl-phenyl)-acetamide] |  | 36 |  |
| O=C(C(Nc1ccccc1F)c1ccc(C(F)(F)F)cc1)N1Cc2ccccc2C1 (centres unmarked) [Cpd 64] | 0.022 µM and 0.025 µM | 102 | inhibition at 0.2 µM (HEK293, 0.2 μM compound, canine TRPM8 HEK293, icilin): 100% |
| O=C(C(Nc1ccccc1F)c1ccc(C(F)(F)F)cc1)N1CCc2ccccc2C1 (centres unmarked) [Cpd 65] | 0.048 µM | 100 |  |
| COc1ccc(C(Nc2ccccc2)C(=O)N2CCCC2c2ccccc2Cl)cc1 (centres unmarked) [Cpd 66] | 0.028 µM | 102 |  |
| O=C(C(Nc1ccccc1)c1ccc(Br)cc1)N1CCCC1c1ccccc1Cl (centres unmarked) [Cpd 67] | 0.042 µM | 102 |  |
| O=C(C(Nc1ccccc1)c1ccc(Br)cc1)N1CCCC1c1ccccc1 (centres unmarked) [Cpd 70] | 0.023 µM | 103 |  |

| Structure (SMILES) | IC50 | inhibition at 0.5 µM (canine TRPM8 HEK293, icilin) [%] | further results |
| --- | --- | --- | --- |
| O=C(C(Nc1ccccc1)c1ccc(Br)cc1)N1Cc2ccccc2C1 (centres unmarked) [Cpd 71] | 0.074 µM | 91 |  |
| COc1ccc(C(Nc2ccccc2)C(=O)N2CCCC2c2ccccc2)cc1 (centres unmarked) [Cpd 72] | 0.046 µM | 102 |  |
| O=C(C(Nc1ccc(F)cc1)c1ccc(C(F)(F)F)cc1)N1CCCC1c1ccccc1Cl (centres unmarked) [Cpd 74] | 0.073 µM | 98 |  |
| O=C(C(Nc1ccc(F)cc1)c1ccc(C(F)(F)F)cc1)N1Cc2ccccc2C1 (centres unmarked) [Cpd 77] | 0.084 µM | 98 |  |
| O=C(C(Nc1cccc(F)c1)c1ccc(C(F)(F)F)cc1)N1CCCC1c1ccccc1Cl (centres unmarked) [Cpd 78] | 0.138 µM | 94 |  |
| COc1ccccc1C1CCCN1C(=O)C(Nc1cccc(F)c1)c1ccc(C(F)(F)F)cc1 (centres unmarked) [Cpd 79] | 0.05 µM | 98 |  |
| CC(Nc1ccccc1)(C(=O)N1CCCC1c1ccccc1Cl)c1ccc(C(F)(F)F)cc1 (centres unmarked) [Cpd 80, 1-[2-(2-Chloro-phenyl)-pyrrolidin-1-yl]-2-phenylamino-2-(4-trifluoromethyl-phenyl)-propan-1-one] |  | 69 |  |
| O=C(C(Nc1ccccc1)c1ccc(Cl)cc1)N1CCCC1c1ccccc1Cl (centres unmarked) [Cpd 84] | 0.015 µM | 98 |  |
| COc1ccccc1C1CCCN1C(=O)C(Nc1ccccc1)c1ccc(Cl)cc1 (centres unmarked) [Cpd 85] | 0.006 µM | 97 |  |
| O=C(C(Nc1ccccc1)c1ccc(Cl)cc1)N1CCCC1c1ccccc1 (centres unmarked) [Cpd 86] | 0.015 µM | 97 |  |
| O=C(C(Nc1ccccc1)c1ccc(Cl)cc1)N1Cc2ccccc2C1 (centres unmarked) [Cpd 87] | 0.081 µM | 97 |  |
| O=C(C(Nc1ccccc1)c1ccc(Cl)cc1)N1CCc2ccccc2C1 (centres unmarked) [Cpd 88] | 0.096 µM | 99 |  |
| O=C(C(Nc1ccccc1F)c1ccc(Br)cc1)N1CCCC1c1ccccc1Cl (centres unmarked) [Cpd 89] | 0.02 µM | 98 |  |
| O=C(C(Nc1ccccc1F)c1ccc(Br)cc1)N1CCCC1c1ccccc1 (centres unmarked) [Cpd 91] | 0.014 µM | 97 |  |
| O=C(C(Nc1ccccc1F)c1ccc(Br)cc1)N1Cc2ccccc2C1 (centres unmarked) [Cpd 92] | 0.089 µM | 98 |  |
| O=C(C(Nc1ccccc1F)c1ccc(Br)cc1)N1CCc2ccccc2C1 (centres unmarked) [Cpd 93] | 0.176 µM | 95 |  |
| O=C(C(Nc1ccccc1)c1cccc(C(F)(F)F)c1)N1CCCC1c1ccccc1Cl (centres unmarked) [Cpd 97] | 0.089 µM | 100 |  |
| COc1ccccc1C1CCCN1C(=O)C(Nc1ccccc1)c1cccc(C(F)(F)F)c1 (centres unmarked) [Cpd 98] | 0.056 µM | 100 |  |
| O=C(C(Nc1ccccc1)c1cccc(C(F)(F)F)c1)N1Cc2ccccc2C1 (centres unmarked) [Cpd 99] | 0.089 µM | 99 |  |
| O=C(C(CNc1ccccc1)c1ccc(C(F)(F)F)cc1)N1Cc2ccccc2C1 (centres unmarked) [Cpd 100] | 0.29 µM | 90 |  |
| O=C(C(CNc1ccccc1)c1ccc(C(F)(F)F)cc1)N1CCc2ccccc2C1 (centres unmarked) [Cpd 102] | 0.159 µM | 98 |  |
